{"source": "patent US20230190740A1", "about": "“AN NK-1 RECEPTOR ANTAGONIST FOR TREATING A DISEASE SELECTING FROM SEPSIS, SEPTIC SHOCK, ACUTE RESPIRATORY DISTRESS SYNDROME (ARDS) OR MULTIPLE ORGAN D[…] (MODS)” (NeRRe Therapeutics Limited, priority 2020, published 2023)", "key": {"[1]": {"system": "pulmonary inflammation induced by intranasal lipopolysaccharide (LPS) challenge", "experiment": "LPS induced neutrophilia model of lung inflammation and injury (mouse model of ARDS): inflammatory cell counts in BALF", "format": "in vivo, female C57BL6J mice", "design": "key to WBC cell counts, 4 hr Statistical significance / Neutrophils cell counts, 4 hr Statistical significance: * p < 0.05; ** p < 0.01; *** p < 0.001; **** p < 0.0001.; not significant (NS)", "protocol": "(§1) Orvepitant was evaluated in the established mouse model of ARDS; the LPS induced neutrophilia model of lung inflammation and injury.\n(§2) The effects of vehicle control or orvepitant (250 mg/kg of orvepitant maleate anhydrous crystalline form [Form 1]), dosed orally 1 hour prior to challenge, on pulmonary inflammation induced by a single intranasal challenge dose (10 ug/kg) of either proinflammatory lipopolysaccharide (LPS), or phosphate-buffered saline (PBS) control, was investigated in female C57BL6J mice. Animals were euthanised at either 4 or 24 hours, and inflammatory cell counts and mediators were assayed in bronchoalveolar lavage (BALF) from all animals.\n(§3) Key: Bronchoalveolar lavage fluid (BALF); intranasal (in); lipopolysaccharide (LPS); number of female C57BL6J mice/group (n); per os (po); phosphate buffered saline (PBS)."}, "[2]": {"system": "proinflammatory mediators in BALF after intranasal lipopolysaccharide (LPS) challenge", "experiment": "LPS induced neutrophilia model of lung inflammation and injury (mouse model of ARDS): proinflammatory mediators in BALF", "format": "in vivo, female C57BL6J mice", "design": "key to IL-1β, 4 hr Statistical significance / TNFα, 24 hr Statistical significance / VEGF-A, 4 hr Statistical significance / MCP-1, 4 hr Statistical significance: * p < 0.05; ** p < 0.01; *** p < 0.001; **** p < 0.0001.; not significant (NS)", "protocol": "as §1, §2, §3"}, "[3]": {"details": "250 mg/kg per os 1 hour prior to LPS intranasal challenge, BALF at 4 hr, vs vehicle/LPS group"}, "[4]": {"details": "250 mg/kg per os 1 hour prior to LPS intranasal challenge, BALF at 24 hr, vs vehicle/LPS group"}, "[5]": {"details": "250 mg/kg per os, BALF at 4 hr after LPS intranasal challenge, vs vehicle/LPS group"}, "[6]": {"details": "250 mg/kg per os, BALF at 24 hr after LPS intranasal challenge, vs vehicle/LPS group"}}}
{"molecule": "Cc1cc(F)ccc1[C@H]1C[C@@H](N2CCN3C(=O)CC[C@H]3C2)CCN1C(=O)N(C)[C@H](C)c1cc(C(F)(F)F)cc(C(F)(F)F)c1", "note": "[orvepitant, 2-(R)-(4-Fluoro-2-methyl-phenyl)-4-(S)-((8aS)-6-oxo-hexahydro-pyrrolo[1,2-a]-pyrazin-2-yl)-piperidine-1-carboxylic acid [1-(R)-(3,5-bis-trifluoromethyl-phenyl)-ethyl]-methylamide]", "values": [{"measurement": "effect on inflammatory cell migration", "setting": "[1]; 250 mg/kg orally, ARDS LPS induced neutrophilia model", "result": "ameliorated"}, {"measurement": "Neutrophils cell counts, 4 hr Statistical significance", "setting": "[1]; [3]", "result": "NS"}, {"measurement": "WBC cell counts, 4 hr Statistical significance", "setting": "[1]; [3]", "result": "NS"}, {"measurement": "Neutrophils cell counts, 24 hr Statistical significance", "setting": "[1]; [4]", "result": "*** (*** p < 0.001)"}, {"measurement": "WBC cell counts, 24 hr Statistical significance", "setting": "[1]; [4]", "result": "*** (*** p < 0.001)"}, {"measurement": "effect on range of proinflammatory mediators measured in the BALF", "setting": "[2]; 250 mg/kg orally, at both 4 and 24 hours, vs vehicle treated LPS-challenged animals", "result": "reduced"}, {"measurement": "IL17A, 4 hr % mean reduction", "setting": "[2]; [5]", "result": "(36%)"}, {"measurement": "IL17A, 4 hr Statistical significance", "setting": "[2]; [5]", "result": "**** (**** p < 0.0001.)"}, {"measurement": "IL-1β, 4 hr Statistical significance", "setting": "[2]; [5]", "result": "NS"}, {"measurement": "IL-6, 4 hr % mean reduction", "setting": "[2]; [5]", "result": "(44%)"}, {"measurement": "IL-6, 4 hr Statistical significance", "setting": "[2]; [5]", "result": "** (** p < 0.01)"}, {"measurement": "MCP-1, 4 hr Statistical significance", "setting": "[2]; [5]", "result": "NS"}, {"measurement": "TNFα, 4 hr % mean reduction", "setting": "[2]; [5]", "result": "(26%)"}, {"measurement": "TNFα, 4 hr Statistical significance", "setting": "[2]; [5]", "result": "* (* p < 0.05)"}, {"measurement": "VEGF-A, 4 hr Statistical significance", "setting": "[2]; [5]", "result": "NS"}, {"measurement": "IL17A, 24 hr % mean reduction", "setting": "[2]; [6]", "result": "(47%)"}, {"measurement": "IL17A, 24 hr Statistical significance", "setting": "[2]; [6]", "result": "* (* p < 0.05)"}, {"measurement": "IL-1β, 24 hr % mean reduction", "setting": "[2]; [6]", "result": "(33%)"}, {"measurement": "IL-6, 24 hr % mean reduction", "setting": "[2]; [6]", "result": "(39%)"}, {"measurement": "MCP-1, 24 hr % mean reduction", "setting": "[2]; [6]", "result": "(56%)"}, {"measurement": "MCP-1, 24 hr Statistical significance", "setting": "[2]; [6]", "result": "** (** p < 0.01)"}, {"measurement": "TGF-β1, 24 hr % mean reduction", "setting": "[2]; [6]", "result": "(62%)"}, {"measurement": "TGF-β1, 24 hr Statistical significance", "setting": "[2]; [6]", "result": "*** (*** p < 0.001)"}, {"measurement": "TNFα, 24 hr Statistical significance", "setting": "[2]; [6]", "result": "NS"}, {"measurement": "VEGF-A, 24 hr % mean reduction", "setting": "[2]; [6]", "result": "(32%)"}]}
